Assay results published in US8709385B2, “Poloxamer foamable pharmaceutical compositions with active agents and/or therapeutic cells and uses” (Foamix Ltd., priority 2008, dated 2014).
Like-named read-outs stand apart in the source and are kept apart here.

What was measured:
[1] = Solubility and gelling of salicylic acid in Poloxamer 188 solution; assay type: physicochemical; details: 0.50 gr. in 12.5 gr. of 20% Poloxamer 188
Text: In both vials, 1 & 2, there are 12.5 gr. of 20% Poloxamer 188/purified water stock solution (2.5 gr. Poloxamer 188+10 gr. purified water).

[2] = USP 29, cited from earlier work
[3] = Microscope observation for crystals of active agent; assay type: physicochemical; details: Poloxamer 407 at 15% concentration in the formulation
Text: Poloxamer 407 functions as co-solubilizer ingredient of sodium diclofenac.

[4] = Solubility of 3% sodium diclofenac in Poloxamer 407 in water; assay type: physicochemical; details: 3% in 5, 7 and 10 percent of Poloxamer in water, heated to 75° C. and cooled
Method: All 3 concentrations were heated to 75° C. to dissolution and cooled.

Row | SMILES | state of Poloxamer 188 solution with doubled salicylic acid concentration [1] | solubility in water ([2]; 20° C.) [%] | solubility in water [2] [gr. in 460 gr.] | crystals under the microscope [3] | crystals after 24 h [4]
1 | O=C(O)c1ccccc1O [Salicylic acid] | viscous gel with no fluidity | ~0.2 | 1 |  | 
2 | O=C(O)Cc1ccccc1Nc1c(Cl)cccc1Cl [sodium diclofenac] |  |  |  | crystals were not observed | crystals were visually observed
